In US6964975B2, “Isoxazole and thiazole compounds and use thereof as medicine” (Kirin Beer Kabushiki Kaisha, priority 2000, dated 2005) one finds IC50 data, which are given here for 12 compounds.

The target in one test is T1, human EDG-2 (Homo sapiens, UniProt Q92633).
T1 construct: cDNA of the cloned human EDG-2 was introduced into pEFneo, which is an animal expression vector; expressed in transfected cells; host or cells: HepG2
The test can be described thus: Inhibitory activity on LPA-induced elevation of intracellular Ca2+ level. Format: cell-based. As to conditions: 50% inhibition of elevation of intracellular Ca2+ level by LPA, human EDG-2/HepG2 cells, fura-2. A digest of the protocol: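 Stably transfected HepG2 cells loaded with fura-2/AM (45 min, room temperature) in 0.1% BSA HEPES buffer. Test compound added before LPA, and the LPA-evoked intracellular Ca2+ rise measured fluorometrically. IC50 for inhibition derived.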

In the next test the test system is Human EDG-2/HepG2 cells. The test can be described thus: Inhibitory activity on LPA-accelerated [3H] thymidine incorporation (cell proliferation). As to conditions: 50% inhibition of LPA-induced increase of [3H] thymidine incorporation. Format: cell-based. The source says:
The human EDG-2 expression plasmid was introduced into HepG2 cells by electroporation. After the introduction, culturing was continued while exchanging selective media every 3 to 4 days, thereby obtaining an expressed colony. Regarding these cells, Ca-influx and cell-proliferation by LPA, level of [^3H] LPA binding and the like were inspected to select a cell line which highly expresses human EDG-2 (human EDG-2/HepG2).
Human EDG-2/HepG2 cells suspended in 10% bovine serum-containing DMEM (Dulbecco's modified eagle medium) were plated on a 96-well plate and, on the next day, the medium was exchanged with serum-free DMEM. 24 hours later, the medium was exchanged with DMEM containing LPA or DMEM containing no LPA, cells were cultured for further 16 hours, and [^3H] thymidine was then added. After culturing for 8 hours subsequent to the addition of [^3H] thymidine, cells were washed with PBS (phosphate-buffered saline), and the amount of [^3H] thymidine incorporated into the cells were assayed by Betaplate filter counter system (Amersham Pharmacia Biotech). The difference between the amount of [^3H] thymidine incorporated in the LPA-added well and the amount of [^3H] thymidine incorporated in the well containing no LPA represents the amount of [^3H] thymidine incorporation accelerated by LPA. […] The test compounds were added immediately before the LPA addition.
(Uptake of a labelled nucleoside into DNA is a usual measure of proliferation.)

T1 sequence (Q92633 whole entry): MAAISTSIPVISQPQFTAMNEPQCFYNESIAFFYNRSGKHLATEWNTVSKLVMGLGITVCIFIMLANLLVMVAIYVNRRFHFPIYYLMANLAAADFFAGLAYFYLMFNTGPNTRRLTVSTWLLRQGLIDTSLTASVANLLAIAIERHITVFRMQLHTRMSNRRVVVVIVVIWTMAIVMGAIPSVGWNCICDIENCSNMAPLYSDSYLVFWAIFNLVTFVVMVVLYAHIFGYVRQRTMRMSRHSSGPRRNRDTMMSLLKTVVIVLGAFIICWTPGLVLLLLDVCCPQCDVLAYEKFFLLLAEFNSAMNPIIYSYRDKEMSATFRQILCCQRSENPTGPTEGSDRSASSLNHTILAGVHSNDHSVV

As for `C=CCSCc1cccc(-c2onc(C)c2NC(=O)OC(C)c2ccccc2Cl)c1` (stereo not drawn) [Compound 141, 1-(2-Chlorophenyl)ethyl N-(5-{3-[(allylsulfanyl)methyl]phenyl}-3-methyl-4-isoxazolyl)-carbamate], the IC50 – broadly, the midpoint of a concentration-inhibition curve – was 3 to 10 µM against human EDG-2 and 0.3 to 1 µM in the test on Human EDG-2/HepG2 cells.
Regarding `Cc1noc(-c2ccc(CCl)cc2)c1NC(=O)OC(c1ccccc1)C(F)(F)F` (stereo not drawn) [Compound 161, 2,2,2-Trifluoro-1-phenylethyl N-{5-[4-(chloromethyl)phenyl]-3-methyl-4-isoxazolyl}-carbamate], the IC50 was in the range of 3 to 10 µM against human EDG-2 and 1 to 3 µM in the test on Human EDG-2/HepG2 cells.
Regarding `CCSCc1ccc(-c2onc(C)c2NC(=O)OC(C)c2ccccc2Cl)cc1` (stereo not drawn) [Compound 108, 1-(2-Chlorophenyl)ethyl N-(5-{4-[(ethylsulfanyl)methyl]phenyl}-3-methyl-4-isoxazolyl)carbamate], the IC50 lay in the range of 3 to 10 µM at human EDG-2 and 0.1 to 0.3 µM in the test on Human EDG-2/HepG2 cells.
Consider `CCc1noc(-c2ccc(CCl)cc2)c1NC(=O)OC(c1ccccc1)C(F)(F)F` (stereo not drawn) [Compound 164, 2,2,2-Trifluoro-1-phenylethyl N-{5-[4-(chloromethyl)phenyl]-3-ethyl-4-isoxazolyl}carbamate], for which the IC50 lay within 3 to 10 µM on human EDG-2 and 0.3 to 1 µM with Human EDG-2/HepG2 cells.
Turning to `CCc1noc(-c2ccc(CSCCC(=O)O)cc2)c1NC(=O)OC(C)c1ccccc1F` (stereo not drawn) [Compound 167, 3-({4-[3-Ethyl-4-({[1-(2-fluorophenyl)ethoxy]carbonyl}amino)-5-isoxazolyl]benzyl}-sulfanyl)propanoic acid], the IC50 fell in the range of 3 to 10 µM against human EDG-2 and 0.03 to 0.1 µM in the test on Human EDG-2/HepG2 cells.
With `COC(=O)CSCc1cccc(-c2onc(C)c2NC(=O)OC(C)c2ccccc2Cl)c1` (stereo not drawn) [Compound 130, Methyl 2-({3-[4-({[1-(2-chlorophenyl)ethoxy]carbonyl}amino)-3-methyl-5-isoxazolyl]-benzyl}sulfanyl)acetate], the IC50 on human EDG-2 lay within 3 to 10 µM; in the test on Human EDG-2/HepG2 cells, 0.3 to 1 µM.
On to `Cc1noc(-c2ccc(CNCCc3cccnc3)cc2)c1NC(=O)OC(C)c1ccccc1Cl` (stereo not drawn) [Compound 110, 1-(2-Chlorophenyl)ethyl N-{3-methyl-5-[4-({[2-(3-pyridyl)ethyl]amino}methyl)-phenyl]-4-isoxazolyl}carbamate], for which the IC50 against human EDG-2 lay in the range of 10 to 30 µM; in the test with Human EDG-2/HepG2 cells, 0.3 to 1 µM.
Take `Cc1noc(-c2ccco2)c1NC(=O)OC(C)c1ccccc1Cl` (stereo not drawn) [Compound 32, 1-(2-Chlorophenyl)ethyl N-[5-(2-furyl)-3-methyl-4-isoxazolyl]carbamate]: the IC50 is 3 µM against human EDG-2 and 1 µM in the test with Human EDG-2/HepG2 cells.
With `C=CCSCc1ccc(-c2onc(C)c2NC(=O)OC(C)c2ccccc2Cl)cc1` (stereo not drawn) [Compound 123, 1-(2-Chlorophenyl)ethyl N-(5-{4-[(allylsulfanyl)methyl]phenyl}-3-methyl-4-isoxazolyl)-carbamate], the IC50 on human EDG-2 is 3 to 10 µM; in the test with Human EDG-2/HepG2 cells, 0.1 to 0.3 µM.
As for `CCc1noc(-c2ccc(CSCCC(=O)OC)cc2)c1NC(=O)OC(C)c1ccccc1F` (stereo not drawn) [Compound 165, Methyl 3-({4-[3-ethyl-4-({[1-(2-fluorophenyl)ethoxy]carbonyl}amino)-5-isoxazolyl]-benzyl}sulfanyl)propanoate], the 50% inhibitory concentration (IC50) on human EDG-2 fell in the range of 3 to 10 µM; in the test with Human EDG-2/HepG2 cells, 0.1 to 0.3 µM.
On to `Cc1noc(-c2ccc(CNCCc3ccncc3)cc2)c1NC(=O)OC(C)c1ccccc1Cl` (stereo not drawn) [Compound 111, 1-(2-Chlorophenyl)ethyl N-{3-methyl-5-[4-({[2-(4-pyridyl)ethyl]amino}methyl)phenyl]-4-isoxazolyl}carbamate], for which the IC50 fell in the range of 10 to 30 µM against human EDG-2 and 1 to 3 µM with Human EDG-2/HepG2 cells.
In the case of `Cc1noc(-c2cccc(CSCCc3ccccc3)c2)c1NC(=O)OC(C)c1ccccc1Cl` (stereo not drawn) [Compound 142, 1-(2-Chlorophenyl)ethyl N-(3-methyl-5-{3-[(phenethylsulfanyl)methyl]phenyl}-4-isoxazolyl)-carbamate], the IC50 against human EDG-2 was 3 to 10 µM; in the test on Human EDG-2/HepG2 cells it was 0.3 µM.
